From patent US7833785B2, “Method for chemical dissociation of cells from physical surfaces” (priority 2004, dated 2010)
Where a name gives a salt, the structure may show the parent alone.

What was measured:
mouse neurospheres [1] = experiment: Different acidic neutralizing solutions after NaOH dissociation of mouse neurospheres; trypan blue exclusion, serial subculture; settings: for Average Viable Cell Conc.: NaOH dissociation, acid as neutralizing solution; for Average Viable Cell Conc. / Average Cell Viability: n=3; for Average Cell Viability: trypan blue exclusion
Method: (§6) The viable cell concentration, viabilities, and fold increase in number of viable cells for mouse neurospheres exposed to different acidic neutralizing solutions following chemical dissociation. The aggregates were dissociated into a single cell suspension using an NaOH based dissociation solution. Acidic neutralizing solutions generated using a variety of acids (listed in table) were then added to counteract the high pH of the dissociation medium. Cell counts and viabilities were determined by trypan blue exclusion. Cells were serially subcultured for 4 passages in 25 cm^2 tissue culture flasks containing 5 mL of PPRF-m4 medium. The flasks were maintained in a humidified 37° C. incubator containing 5% CO2 (Average values, n=3).
(§7) All of the experiments conducted to test the effect of different neutralizing solutions employed an NaOH based dissociation medium to dissociate the cells.
(§8) Passage 3 mouse neurospheres originally procured from the striata of 14 day old embryonic mice were thawed and passaged twice (passage 5) in PPRF-m4 medium. These neuropsheres samples were previously dissociated by mechanical dissociation at each passage prior to being used for the experiments described here. Passage 5 mouse neurospheres were isolated and centrifuged (10 minutes, 140 g) to form a cell pellet in a 15 mL centrifuge tube. The supernatant was completely removed. The aggregates were then resuspended in 200 μL of fresh PPRF-m4 medium at room temperature by pipetting the cell pellet 5 times. 200 μL of an NaOH based alkaline dissociation medium was then added to the tube, and a stopwatch was used to time the procedure for 7 minutes. After 2 minutes and 5 minutes had elapsed, the cells were gently pipetted 5 times. After 7 minutes had elapsed, 200 μL of an acidic neutralizing medium was added to the mixture to decrease the pH, and the sample was gently pipetted 5 more times. […] The cell concentration and viability of the resulting cell suspension was determined using trypan blue exclusion, and the single cells were inoculated at 7.5×10^5 cells/mL into 25 cm^2 tissue culture flasks to determine if the neutralizing solution inhibited the cells from proliferating (Table 3). The cells were subsequently serially subcultured using the same neutralizing solution to which they had previously been exposed.

in vitro [2] = settings: mouse, Average Cell Viability
Method: as §6, §7, §8

[3] = test system: mouse embryonic stem cells; experiment: Detachment and dissociation of mouse embryonic stem cells using different bases in PBS with 10 mM EDTA; trypan blue exclusion; settings: for Average Viable Cell Conc.: base in 1×PBS with 10 mM EDTA; for Average Viable Cell Conc. / Average Cell Viability: n=3; for Fold Increase in number of viable cells: inoculated at 3.13×10^4 cells/mL; for Average Cell Viability: trypan blue exclusion
Method: (§1) A total of five different dissociation solutions were tested for their ability to detach and dissociate mouse embryonic stem cells. Each solution was made by adding a different base to a basal solution (1×PBS solution containing 10 mM EDTA).
(§2) A volume of 2.0 mL of the appropriate dissociation solution was then added to each 25 cm^2 tissue culture flask, and the flasks were placed in an incubator at 37° C. The flasks were rocked intermittently over a period of 22 minutes after which gentle pipetting was used to break up any remaining clumps of cells. The cell suspension was collected and added to a sterile 15 mL tube containing 5.0 mL of medium and then centrifuged for 5 minutes at 1000 rpm. […] After centrifugation, the supernatant was discarded and the pellet was resuspended in 1.0 mL of medium.

mouse neurospheres [4] = experiment: Dissociation of mouse neurospheres using different alkaline solutions; trypan blue exclusion, serial subculture; settings: for Average Viable Cell Conc.: base in PPRF-m4, neutralized with HCl; for Average Viable Cell Conc. / Average Cell Viability: n=3; for Fold Increase in number of viable cells: inoculated at 0.75×10^5 cells/mL; for Average Cell Viability: trypan blue exclusion
Method: (§3) Table 2. […] Following dissociation, the pH was reduced by using neutralizing solution generated using HCl.
(§4) In order to counteract the pH effect of the alkaline dissociation solutions on the cells, an appropriate quantity of acidic medium was added.
(§5) The supernatant was completely removed. […] A volume of 200 μL was added to those samples dissociated with sodium hydroxide, potassium hydroxide or sodium phosphate tribasic dodecahydrate. A volume of 300 μL was added to those samples dissociated using ammonium hydroxide. […] Following the addition of the acidic medium, the cell sample was gently pipetted 5 more times.

in vitro [5] = settings: mouse, Average Cell Viability; remark: listed apart in the source
Method: as §1, §2

in vitro [6] = settings: mouse, Average Cell Viability; remark: listed apart in the source
Method: as §3, §4, §5

SMILES	Fold Increase in number of viable cells (mouse neurospheres [1]; passage 1)	Average Viable Cell Conc. (mouse neurospheres [1]; passage 1)	Fold Increase in number of viable cells (mouse neurospheres [1]; passage 2)	Average Viable Cell Conc. (mouse neurospheres [1]; passage 2)	Fold Increase in number of viable cells (mouse neurospheres [1]; passage 3)	Average Viable Cell Conc. (mouse neurospheres [1]; passage 3)	Fold Increase in number of viable cells (mouse neurospheres [1]; passage 4)	Average Viable Cell Conc. (mouse neurospheres [1]; passage 4)	Average Viable Cell Conc. ([3]; passage 1)	Average Viable Cell Conc. ([3]; passage 2)	Average Viable Cell Conc. ([3]; passage 3)	Average Viable Cell Conc. ([3]; passage 4)	Average Viable Cell Conc. (mouse neurospheres [4]; passage 1)	Average Viable Cell Conc. (mouse neurospheres [4]; passage 2)	Average Viable Cell Conc. (mouse neurospheres [4]; passage 3)	Average Viable Cell Conc. (mouse neurospheres [4]; passage 4)	Fold Increase in number of viable cells ([3]; passage 1)	Fold Increase in number of viable cells ([3]; passage 2)	Fold Increase in number of viable cells ([3]; passage 3)	Fold Increase in number of viable cells ([3]; passage 4)	also measured
O=P(O)(O)O [Phosphoric Acid, phosphoric acid]	15	11.5 10^5 cells/mL	23	17.3 10^5 cells/mL	6	4.2 10^5 cells/mL	16	11.8 10^5 cells/mL	–	–	–	–	–	–	–	–	–	–	–	–	viability (in vitro [2]): 91%
O=C([O-])[O-].[Na+].[Na+] [Sodium Carbonate, sodium carbonate]	–	–	–	–	–	–	–	–	3.7 10^5 cells/mL	3.6 10^5 cells/mL	7.7 10^5 cells/mL	6.8 10^5 cells/mL	7.7 10^5 cells/mL	11.4 10^5 cells/mL	11.1 10^5 cells/mL	8.7 10^5 cells/mL	–	–	–	–	–
[K+].[OH-] [KOH, potassium hydroxide]	–	–	–	–	–	–	–	–	4.3 10^5 cells/mL	1.8 10^5 cells/mL	3.2 10^5 cells/mL	4.4 10^5 cells/mL	7.1 10^5 cells/mL	8.7 10^5 cells/mL	13.9 10^5 cells/mL	19.0 10^5 cells/mL	14	6	10	14	Average Cell Viability ([3]; passage 1): 89%; Average Cell Viability ([3]; passage 2): 86%; Average Cell Viability ([3]; passage 3): 81%; Average Cell Viability ([3]; passage 4): 81%; Fold Increase in number of viable cells (mouse neurospheres [4]; passage 1): 9.4; Average Cell Viability (mouse neurospheres [4]; passage 1): 81%; Fold Increase in number of viable cells (mouse neurospheres [4]; passage 2): 12; Average Cell Viability (mouse neurospheres [4]; passage 2): 85%; Fold Increase in number of viable cells (mouse neurospheres [4]; passage 3): 18; Average Cell Viability (mouse neurospheres [4]; passage 3): 9%; Fold Increase in number of viable cells (mouse neurospheres [4]; passage 4): 25; Average Cell Viability (mouse neurospheres [4]; passage 4): 93%
O=S(=O)(O)O [Sulfuric Acid, sulfuric acid]	14	10.5 10^5 cells/mL	18	13.1 10^5 cells/mL	8	6.1 10^5 cells/mL	15	11.3 10^5 cells/mL	–	–	–	–	–	–	–	–	–	–	–	–	viability (in vitro [2]): 89%
CC(=O)O [Acetic Acid, acetic acid]	13	9.6 10^5 cells/mL	20	14.3 10^5 cells/mL	10	7.2 10^5 cells/mL	17	12.8 10^5 cells/mL	–	–	–	–	–	–	–	–	–	–	–	–	viability (in vitro [2]): 91%
O.O.O.O.O.O.O.O.O.O.O.O.O=P([O-])([O-])[O-].[Na+].[Na+].[Na+] [Sodium Phosphate, sodium phosphate tribasic dodecahydrate]	–	–	–	–	–	–	–	–	4.2 10^5 cells/mL	2.0 10^5 cells/mL	4.1 10^5 cells/mL	6.7 10^5 cells/mL	11.5 10^5 cells/mL	7.3 10^5 cells/mL	13.9 10^5 cells/mL	10.2 10^5 cells/mL	14	6	13	21	Average Cell Viability ([3]; passage 1): 88%; Average Cell Viability ([3]; passage 2): 91%; Average Cell Viability ([3]; passage 3): 87%; Average Cell Viability ([3]; passage 4): 84%; Fold Increase in number of viable cells (mouse neurospheres [4]; passage 1): 15; Average Cell Viability (mouse neurospheres [4]; passage 1): 87%; Fold Increase in number of viable cells (mouse neurospheres [4]; passage 2): 10; Average Cell Viability (mouse neurospheres [4]; passage 2): 89%; Fold Increase in number of viable cells (mouse neurospheres [4]; passage 3): 18; Average Cell Viability (mouse neurospheres [4]; passage 3): 89%; Fold Increase in number of viable cells (mouse neurospheres [4]; passage 4): 14; Average Cell Viability (mouse neurospheres [4]; passage 4): 93%
N [Ammonium Hydroxide, ammonium hydroxide]	–	–	–	–	–	–	–	–	4.1 10^5 cells/mL	1.4 10^5 cells/mL	2.7 10^5 cells/mL	5.1 10^5 cells/mL	6.2 10^5 cells/mL	8.4 10^5 cells/mL	10.5 10^5 cells/mL	9.1 10^5 cells/mL	13	4	8	16	viability at 22 min, 9.9 mM (in vitro [5]): 84%; viability at 7 min, 23.8 mM (in vitro [6]): 91%; Fold Increase in number of viable cells (mouse neurospheres [4]; passage 1): 8; Fold Increase in number of viable cells (mouse neurospheres [4]; passage 2): 11; Fold Increase in number of viable cells (mouse neurospheres [4]; passage 3): 14; Fold Increase in number of viable cells (mouse neurospheres [4]; passage 4): 12
Cl [HCl, hydrochloric acid]	14	10.9 10^5 cells/mL	17	12.7 10^5 cells/mL	12	9.0 10^5 cells/mL	14	10.2 10^5 cells/mL	–	–	–	–	–	–	–	–	–	–	–	–	Average Cell Viability (mouse neurospheres [1]; passage 1): 91%; Average Cell Viability (mouse neurospheres [1]; passage 2): 92%; Average Cell Viability (mouse neurospheres [1]; passage 3): 92%; Average Cell Viability (mouse neurospheres [1]; passage 4): 89%
[Na+].[OH-] [NaOH, sodium hydroxide]	–	–	–	–	–	–	–	–	3.6 10^5 cells/mL	6.2 10^5 cells/mL	7.5 10^5 cells/mL	5.7 10^5 cells/mL	8.7 10^5 cells/mL	12.9 10^5 cells/mL	8.8 10^5 cells/mL	13.9 10^5 cells/mL	12	20	24	18	Fold Increase in number of viable cells (mouse neurospheres [4]; passage 1): 12; Fold Increase in number of viable cells (mouse neurospheres [4]; passage 2): 17; Fold Increase in number of viable cells (mouse neurospheres [4]; passage 3): 12; Fold Increase in number of viable cells (mouse neurospheres [4]; passage 4): 18
